Source: patent US4988684A, “Novel 4-alkylthio-steroids” (Roussel Uclaf, priority 1988, dated 1991)

Molecular target: T1, aromatase (cytochrome P450 aromatase) (Homo sapiens, UniProt P11511)
T1 construct: Human placentas were used; from tissue; host or cells: human placenta, microsomes (105,000 g pellet)
T1 sequence (P11511 1-503): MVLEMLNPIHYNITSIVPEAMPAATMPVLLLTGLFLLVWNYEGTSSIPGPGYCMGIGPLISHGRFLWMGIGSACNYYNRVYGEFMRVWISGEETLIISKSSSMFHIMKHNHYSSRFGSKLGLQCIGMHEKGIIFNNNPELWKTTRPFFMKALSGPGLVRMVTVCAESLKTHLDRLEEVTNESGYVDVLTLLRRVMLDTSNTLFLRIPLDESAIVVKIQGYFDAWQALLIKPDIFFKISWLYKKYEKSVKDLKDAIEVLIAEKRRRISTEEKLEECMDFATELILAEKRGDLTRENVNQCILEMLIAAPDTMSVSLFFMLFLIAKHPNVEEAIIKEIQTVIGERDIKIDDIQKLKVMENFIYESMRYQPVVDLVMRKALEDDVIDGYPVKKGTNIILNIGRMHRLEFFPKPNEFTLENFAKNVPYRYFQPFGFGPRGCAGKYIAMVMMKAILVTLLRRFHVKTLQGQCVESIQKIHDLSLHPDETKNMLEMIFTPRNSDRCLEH
Experiment: Aromatase inhibition in human placental microsomes (tritiated water release from 1-2-(^3H)-androstenedione)
Type: biochemical
Details: 25 micrograms protein per test, 60 nM androstene-dione substrate, NADPH, pH 7.2, 37° C., 10 minutes, read-out: IC50 (concentration of inhibitor necessary to decrease by 50% the enzymatic activity)
Description: Inhibition dependent on the concentration (measurement of the IC50 =concentration of the inhibitor necessary to reduce the enzymatic activity by 50%). Human placentas were used which one hour or more after birth were washed, perfused with physiological serum (5 liters) via the umbilical vein and then frozen at -40° C.
The placentas were thawed at 4° C., then homogenized (1:3) in a 10 mM phosphate buffer, pH=7.0, containing 100 mM of potassium chloride (KCl), 10 mM of dithiothreitol (DTT), 10 mM of ethylenediaminetetra-aceticacid (EDTA), 40 mM of nicotinamide and 250 mM of sucrose. The homogenates were then subjected to various stages of centrifugation until the "9000 g" supernatant was obtained (corresponding to cytosol and to endoplasmic reticulum). This supernatant was then subjected to an ultracentrifugation stage (90 minutes, 105,000 g) to obtain the microsome deposit. […] The protein concentration of the microsome suspension was determined by the BRADFORD method (BRADFORD, Anal. Biochem., Vol. 72 (1976), p. 248). […]
The enzymatic reaction was then very quickly started by the addition of 10 microliters of reduced nicotinamide adenine dinucleotide phosphate (NADPH) dissolved in water. […] After centrifugation, and for each tube, 100 microliters of supernatant was removed and counted in the presence of scintillating liquid. […]

SMILES | IC50 [nM]
C[C@]12CCC(=O)C(SCF)=C1CC[C@@H]1[C@@H]2CC[C@]2(C)C(=O)CC[C@@H]12 [Example 1, 4-fluoromethylthio-Δ^4-androstene-3,17-dione] | 70
C[C@]12CCC(=O)C(SCCl)=C1CC[C@@H]1[C@@H]2CC[C@]2(C)C(=O)CC[C@@H]12 [Example 2, 4-Chloromethylthio-Δ^4-androstene-3,17-dione] | 75
